According to ChEMBL document CHEMBL5331101, “Synthesis and evaluation of N-sulfonylpiperidine-3-carboxamide derivatives as capsid assembly modulators inhibiting HBV in vitro and in HBV-transgenic mice” (Eur J Med Chem, 2023):
Calls of active or inactive are those of the source. The calls are words filed in the database; no cut-off is given here.

Tests used:
Hepatitis B virus [1] = experiment: Antiviral activity against HBV infected in human HePAD38 cells assessed as reduction in intracellular core HBV DNA level at 20 uM incubated for 6 days by qPCR analysis relative to control; format: functional; parameters: scale not given: the % may be the effect or the level left; details: time 6 day
Hepatitis B virus [2] = experiment: Antiviral activity against HBV infected in human HePAD38 assessed as reduction on HBeAg level at 20 uM by ELISA analysis relative to control; format: functional; parameters: scale not given: the % may be the effect or the level left
Hepatitis B virus [3] = experiment: Antiviral activity against HBV infected in human HePAD38 assessed as reduction on HBsAg level at 20 uM by ELISA analysis relative to control; format: functional; parameters: scale not given: the % may be the effect or the level left
Hepatitis B virus [4] = experiment: Antiviral activity against HBV infected in human HePAD38 cells assessed as decay of viral capsid protein by agarose gel electrophoresis-based assay; format: functional, organism-based
Hepatitis B virus [5] = experiment: Antiviral activity against HBV infected in human HePAD38 cells assessed as reduction of capsid associated HBV DNA; format: functional, organism-based
[6] = Selectivity index, ratio of CC50 for cytotoxicity against human HepAD38 cells to EC50 for antiviral activity against HBV infected in human HePAD38 cells; format: toxicity, cell-based; details: read-out: Ratio CC50/EC50
Hepatitis B virus [7] = experiment: Antiviral activity against HBV infected in human HePAD38 cells assessed as decay of viral core protein by agarose gel electrophoresis-based assay; format: functional, organism-based
[8] = Cytotoxicity against human HepAD38 cells assessed as reduction in cell viability incubated for 6 days by CCK-8 assay; format: functional; details: HePAD38, 144 h, time 6 day
Hepatitis B virus [9] = experiment: Antiviral activity against HBV infected in human HePAD38 cells assessed as reduction in intracellular core HBV DNA level at 5 uM incubated for 6 days by qPCR analysis relative to control; format: functional; parameters: scale not given: the % may be the effect or the level left; details: time 6 day
Hepatitis B virus [10] = experiment: Antiviral activity against HBV infected in human HePAD38 assessed as reduction on HBsAg level at 5 uM by ELISA analysis relative to control; format: functional; parameters: scale not given: the % may be the effect or the level left
Hepatitis B virus [11] = experiment: Antiviral activity against HBV infected in human HepAD38 cells assessed as effect on capsid morphology at 20 uM incubated for 3 to 7 days by transmission electron microscopy; format: functional, organism-based; details: time 3-7 day
Hepatitis B virus [12] = experiment: Antiviral activity against HBV infected in human HePAD38 assessed as reduction on HBeAg level at 5 uM by ELISA analysis relative to control; format: functional; parameters: scale not given: the % may be the effect or the level left
[13] = biological target: Core antigen (Hepatitis B virus) (UniProt Q03732); experiment: Modulation of capsid assembly in HBV infected in human HePAD38 cells assessed as inhibition of viral DNA replication at 5 uM incubated for 3 to 7 days by electron microscopic analysis; format: cell-based; details: filed as modulator, time 3-7 day
Hepatitis B virus [14] = experiment: Antiviral activity against HBV infected in human HePAD38 cells assessed as reduction in capsid formation at 2 uM measured for 6 days by agarose gel electrophoresis-based assay; format: functional, organism-based; details: time 6.0 day
Hepatitis B virus [15] = experiment: Antiviral activity against HBV infected in human HePAD38 cells assessed as reduction in intracellular core HBV DNA level at 2 uM incubated for 6 days by qPCR analysis relative to control; format: functional; parameters: scale not given: the % may be the effect or the level left; details: time 6 day
Hepatitis B virus [16] = experiment: Antiviral activity against HBV infected in human HePAD38 assessed as reduction on HBeAg level at 2 uM by ELISA analysis relative to control; format: functional; parameters: scale not given: the % may be the effect or the level left
Hepatitis B virus [17] = experiment: Antiviral activity against HBV infected in human HePAD38 assessed as reduction on HBsAg level at 2 uM by ELISA analysis relative to control; format: functional; parameters: scale not given: the % may be the effect or the level left
Hepatitis B virus [18] = experiment: Antiviral activity against wild type HBV infected in human HepG2 cells assessed as inhibition of viral replication; format: functional, organism-based
Hepatitis B virus [19] = experiment: Antiviral activity against ETV-resistant HBV infected in human HepG2 cells assessed as inhibition of viral replication; format: functional, organism-based
Hepatitis B virus [20] = experiment: Antiviral activity against HBV infected in human HePAD38 assessed as reduction on HBeAg level at 25 nM by ELISA analysis relative to control; format: functional; parameters: scale not given: the % may be the effect or the level left
Hepatitis B virus [21] = experiment: Antiviral activity against HBV infected in human HePAD38 assessed as reduction on HBsAg level at 25 nM by ELISA analysis relative to control; format: functional; parameters: scale not given: the % may be the effect or the level left
Hepatitis B virus [22] = experiment: Antiviral activity against HBV infected in human HePAD38 cells assessed as reduction in intracellular core HBV DNA level at 25 nM incubated for 6 days by qPCR analysis relative to control; format: functional; parameters: scale not given: the % may be the effect or the level left; details: time 6 day

Chain of Core antigen (Hepatitis B virus) (Q03732 as listed by the source): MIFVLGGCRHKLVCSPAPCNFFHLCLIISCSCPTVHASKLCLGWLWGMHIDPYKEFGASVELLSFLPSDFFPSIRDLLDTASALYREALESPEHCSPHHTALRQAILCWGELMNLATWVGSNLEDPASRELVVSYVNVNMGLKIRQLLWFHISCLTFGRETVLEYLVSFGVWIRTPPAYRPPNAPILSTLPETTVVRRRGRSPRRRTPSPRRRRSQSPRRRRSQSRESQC

Compound	Activity (Hepatitis B virus [1]) [%]	Activity (Hepatitis B virus [2]) [%]	Activity (Hepatitis B virus [3]) [%]	Activity (Hepatitis B virus [4])	EC50 (Hepatitis B virus [5]) [nM]	selectivity ratio [6]	Activity (Hepatitis B virus [7])	CC50 [8] [nM]	also measured
COC(=O)c1c(S(=O)(=O)N2CCC[C@H](C(=O)Nc3ccc(F)c(C)c3)C2)c(C)n(C)c1C	29.8	54.6	97.3						
Cc1c(C#N)c(S(=O)(=O)N2CCC[C@H](C(=O)Nc3ccc(F)c(Cl)c3)C2)c(C)n1C	11.1	36	99.8	inactive	4410	> 22.7	inactive	> 100000	
COC(=O)c1c(S(=O)(=O)N2CCC[C@H](C(=O)Nc3ccc(F)c(Cl)c3)C2)c(C)n(C)c1C	39.7	67.4	94						
CCOC(=O)c1c(S(=O)(=O)N2CCCC(C(=O)Nc3ccc(F)c(Cl)c3)C2)c(C)n(CC)c1C (stereo not drawn)	44.2	66	98.2						
COC(=O)c1c(S(=O)(=O)N2CCC[C@H](C(=O)Nc3ccc(F)c(C#N)c3)C2)c(C)n(C)c1C	29.7	61.9	92.4						
Cc1cc(NC(=O)c2cccc(S(=O)(=O)N[C@H]3CCOC3)c2)ccc1F				inactive	270	> 370	inactive	> 100000	Activity (Hepatitis B virus [9]): 5.8%; Activity (Hepatitis B virus [10]): 97%; Activity (Hepatitis B virus [11]): inactive; Activity (Hepatitis B virus [12]): 36.1%
COC(=O)C1=C(C)NC(c2ncc(F)cc2F)=N[C@H]1c1ccc(F)cc1Cl				Active	50		Active	> 20000	Activity [13]: Active; Activity (Hepatitis B virus [14]): Active; Activity (Hepatitis B virus [15]): 4.9%; Activity (Hepatitis B virus [16]): 31.8%; Activity (Hepatitis B virus [17]): 88.5%
CCOC(=O)c1c(S(=O)(=O)N2CCCC(C(=O)Nc3ccc(F)cc3)C2)c(C)n(C)c1C (stereo not drawn)	53.4	62.4	86.6						
COC(=O)c1c(S(=O)(=O)N2CCC[C@H](C(=O)Nc3ccc(F)c(C)c3)C2)c(C)n(CC(C)=O)c1C	38.2	49.4	92.8						
CCOC(=O)c1c(S(=O)(=O)N2CCCC(C(=O)Nc3ccc(F)cc3F)C2)c(C)n(C)c1C (stereo not drawn)	44.9	54	93.5						
CCOC(=O)c1c(S(=O)(=O)N2CCCC(C(=O)Nc3ccc(F)c(Cl)c3)C2)c(C)n(C)c1C (stereo not drawn)	11.8	27.1	94.4	Active			Active		
COC(=O)c1c(C)[nH]c(C)c1S(=O)(=O)N1CCC[C@H](C(=O)Nc2ccc(F)c(C)c2)C1	3.7	73.2	106.1						
COC(=O)c1c(S(=O)(=O)N2CCO[C@H](C(=O)Nc3ccc(F)c(C)c3)C2)c(C)n(C)c1C	39	59	88.2						
CCOC(=O)c1c(S(=O)(=O)N2CCC[C@H](C(=O)Nc3ccc(F)c(C)c3)C2)c(C)n(C2CC2)c1C	7.7	41.6	91.6	inactive	5870	> 17	inactive	> 100000	
COC(=O)c1c(S(=O)(=O)N2CCC[C@H](C(=O)Nc3ccc(F)c(C)c3)C2)c(C)n(C(F)F)c1C	9.6	37.9	92.8	inactive	330	179	inactive	59200	
C=C1[C@H](CO)[C@@H](O)C[C@@H]1n1cnc2c(=O)[nH]c(N)nc21 [ENTECAVIR ANHYDROUS]					3	> 155		> 500	EC50 (Hepatitis B virus [18]): 270 nM; EC50 (Hepatitis B virus [19]): 340 nM; Activity (Hepatitis B virus [20]): 93.4%; Activity (Hepatitis B virus [21]): 93.7%; Activity (Hepatitis B virus [22]): 3.1%
CCOC(=O)c1c(S(=O)(=O)N2CCCC(C(=O)Nc3ccc(F)c(F)c3)C2)c(C)n(C)c1C (stereo not drawn)	11.5	27.2	96	Active	520	> 192	Active	> 100000	
COC(=O)c1c(S(=O)(=O)N2CCC[C@@H](C(=O)Nc3ccc(F)c(C)c3)C2)c(C)n(C)c1C	34.9	62.2	100.5						
